According to patent publication US9481676B2, “Azepino[4,5-B]indoles and methods of use” (Medivation Technologies, Inc., priority 2008, dated 2016):

The molecules below were run against T1, human recombinant adrenergic α2B receptor (Homo sapiens, UniProt P18089) (assay: Adrenergic alpha2B radioligand binding ([3H]Rauwolscine)). Conditions: compound at 1 μM; read-out: Adrenergic (1 μM) α2B, percent inhibition of specific binding.
T1 construct: expressed in transfected cells; host or cells: CHO-K1 cells
T1 sequence (P18089 1-450): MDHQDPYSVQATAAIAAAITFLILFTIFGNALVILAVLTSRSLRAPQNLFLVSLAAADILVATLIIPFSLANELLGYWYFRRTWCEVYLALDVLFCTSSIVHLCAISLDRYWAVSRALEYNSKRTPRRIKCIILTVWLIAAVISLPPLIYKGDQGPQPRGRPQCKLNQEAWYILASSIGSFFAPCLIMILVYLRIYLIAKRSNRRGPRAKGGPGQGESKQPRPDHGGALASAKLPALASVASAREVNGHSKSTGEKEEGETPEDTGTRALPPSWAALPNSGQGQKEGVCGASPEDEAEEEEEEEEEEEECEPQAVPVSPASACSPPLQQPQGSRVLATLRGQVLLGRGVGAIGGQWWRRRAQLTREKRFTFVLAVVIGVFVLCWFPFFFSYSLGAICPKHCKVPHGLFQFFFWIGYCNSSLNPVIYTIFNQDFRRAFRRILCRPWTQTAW
Procedure: To evaluate in radioligand binding assays the activity of compounds of the invention, human recombinant adrenergic α2B receptor expressed in Chinese hamster ovary (CHO-K1) cells (Uhlen S et al. Eur J. Pharmacol. 343(1):93, 1998) in a modified Tris-HCl buffer (50 mM Tris-HCl, pH 7.4, 12.5 mM MgCl2, 1 mM EDTA, 0.2% BSA) was used. Compounds of the invention were incubated with 2.5 nM [^3H]Rauwolscine for 60 min. at 25° C. Non-specific binding was estimated in the presence of 10 μM Prozosin. Receptor proteins were filtered and washed, the filters were then counted to determine [^3H]Rauwolscine specifically bound. Compounds were screened at 1 μM or lower, using 1% DMSO as vehicle. Biochemical assay results are presented as the percent inhibition of specific binding in Table 5.
`Cc1ccc2c(c1)c1c(n2CC(=O)N2CCOCC2)CCN(C)CC1` [Compound No. 38, 2-(2,3,4,5-tetrahydro-3,9-dimethylazepino[4,5-b]indol-6(1H)-yl)-1-morpholinoethanone] gave an inhibition at 1 µM of 83%.
Work on `Cc1ccc2c(c1)c1c(n2/C=C/c2ccc(F)cc2)CCN(C)CC1` [Compound No. 39, 6-(4-fluorostyryl)-1,2,3,4,5,6-hexahydro-3,9-dimethylazepino[4,5-b]indole] yielded an inhibition at 1 µM of 105%.
For `CN1CCc2c(n(CC(O)c3ccccc3F)c3ccc(Cl)cc23)CC1` (stereo not shown) [Compound No. 40, 2-(9-chloro-2,3,4,5-tetrahydro-3-methylazepino[4,5-b]indol-6(1H)-yl)-1-(2-fluorophenyl)ethanol], the inhibition at 1 µM was 101%.
Molecule `Cc1ccc2c(c1)c1c(n2CC(O)c2ccccc2F)CCN(C)CC1` (stereo not shown) [Compound No. 41, 1-(2-fluorophenyl)-2-(2,3,4,5-tetrahydro-3,9-dimethylazepino[4,5-b]indol-6(1H)-yl)ethanol] has an inhibition at 1 µM of 104%.
`CN1CCc2c(n(CC(O)c3ccncc3)c3ccc(Cl)cc23)CC1` (stereo not shown) [Compound No. 42, 2-(9-chloro-2,3,4,5-tetrahydro-3-methylazepino[4,5-b]indol-6(1H)-yl)-1-(pyridin-4-yl)ethanol] showed an inhibition at 1 µM of 107%.
`Cc1ccc2c(c1)c1c(n2CC(O)c2ccncc2)CCN(C)CC1` (stereo not shown) [Compound No. 43, 2-(2,3,4,5-tetrahydro-3,9-dimethylazepino[4,5-b]indol-6(1H)-yl)-1-(pyridin-4-yl)ethanol] was tested, and the inhibition at 1 µM was 107%.
In the case of `Cc1ccc2c(c1)c1c(n2CC(=O)Nc2ccc(F)cc2)CCN(C)CC1` [Compound No. 44, N-(4-fluorophenyl)-2-(2,3,4,5-tetrahydro-3,9-dimethylazepino[4,5-b]indol-6(1H)-yl)acetamide], the inhibition at 1 µM is reported as 12%.
For `Cc1ccc2c(c1)c1c(n2CC(=O)N2CCCC2)CCN(C)CC1` [Compound No. 45, 2-(2,3,4,5-tetrahydro-3,9-dimethylazepino[4,5-b]indol-6(1H)-yl)-1-(pyrrolidin-1-yl)ethanone], the inhibition at 1 µM was 9%.
For `Cc1ccc(CCn2c3c(c4cc(Cl)ccc42)CCN(C)CC3)cc1` [Compound No. 46, 9-chloro-3-methyl-6-(4-methylphenethyl)-1,2,3,4,5,6-hexahydroazepino[4,5-b]indole], the inhibition at 1 µM was 107%.
`COc1ccc(C(O)Cn2c3c(c4cc(Cl)ccc42)CCN(C)CC3)cc1` (stereo not shown) [Compound No. 47, 2-(9-chloro-2,3,4,5-tetrahydro-3-methylazepino[4,5-b]indol-6(1H)-yl)-1-(4-methoxyphenyl)ethanol] showed an inhibition at 1 µM of 105%.
`COc1ccc(C(O)Cn2c3c(c4cc(C)ccc42)CCN(C)CC3)cc1` (stereo not shown) [Compound No. 48, 2-(2,3,4,5-tetrahydro-3,9-dimethylazepino[4,5-b]indol-6(1H)-yl)-1-(4-methoxyphenyl) ethanol] gave an inhibition at 1 µM of 103%.
`COc1ccc(C(O)Cn2c3c(c4cc(Cl)ccc42)CCN(C)CC3)c(F)c1` (stereo not shown) [Compound No. 49, 2-(9-chloro-2,3,4,5-tetrahydro-3-methylazepino[4,5-b]indol-6(1H)-yl)-1-(2-fluoro-4-methoxyphenyl) ethanol] gave an inhibition at 1 µM of 106%.
`COc1ccc(C(O)Cn2c3c(c4cc(C)ccc42)CCN(C)CC3)c(F)c1` (stereo not shown) [Compound No. 50, 1-(2-fluoro-4-methoxyphenyl)-2-(2,3,4,5-tetrahydro-3,9-dimethylazepino[4,5-b]indol-6(1H)-yl)ethanol] gave an inhibition at 1 µM of 102%.
`CN1CCc2c(n(CC(O)c3ccc(F)cc3)c3ccc(Cl)cc23)CC1` (stereo not shown) [Compound No. 51, 2-(9-chloro-2,3,4,5-tetrahydro-3-methylazepino[4,5-b]indol-6(1H)-yl)-1-(4-fluorophenyl) ethanol] gave an inhibition at 1 µM of 103%.
`Cc1ccc2c(c1)c1c(n2CC(O)c2ccc(F)cc2)CCN(C)CC1` (stereo not shown) [Compound No. 52, 1-(4-fluorophenyl)-2-(2,3,4,5-tetrahydro-3,9-dimethylazepino[4,5-b]indol-6(1H)-yl)ethanol] gave an inhibition at 1 µM of 103%.
`CN1CCc2c(n(CC(=O)N3CCCC3)c3ccc(Cl)cc23)CC1` [Compound No. 53, 2-(9-chloro-2,3,4,5-tetrahydro-3-methylazepino[4,5-b]indol-6(1H)-yl)-1-(pyrrolidin-1-yl)ethanone] showed an inhibition at 1 µM of 3%.
`Cc1ccc2c(c1)c1c(n2CC(=O)NC(C)C)CCN(C)CC1` [Compound No. 54, 2-(2,3,4,5-tetrahydro-3,9-dimethylazepino[4,5-b]indol-6(1H)-yl)-N-isopropylacetamide] showed an inhibition at 1 µM of 1%.
For `Cc1ccc2c(c1)c1c(n2CC(=O)OC2CCCC2)CCN(C)CC1` [Compound No. 55, Cyclopentyl-2-(2,3,4,5-tetrahydro-3,9-dimethylazepino[4,5-b]indol-6(1H)-yl)acetate], the inhibition at 1 µM was 7%.
Molecule `CN1CCc2c(n(CCc3ccccc3)c3ccc(Cl)cc23)CC1` [Compound No. 56, 9-chloro-1,2,3,4,5,6-hexahydro-3-methyl-6-phenethylazepino[4,5-b]indole] has an inhibition at 1 µM of 91%.
With `CN1CCc2c(n(CC(=O)N3CCCCC3)c3ccc(Cl)cc23)CC1` [Compound No. 57, 2-(9-chloro-2,3,4,5-tetrahydro-3-methylazepino[4,5-b]indol-6(1H)-yl)-1-(piperidin-1-yl)ethanone] the inhibition at 1 µM was 87%.
`CN1CCc2c(n(CC(O)c3ccc(F)c(F)c3)c3ccc(Cl)cc23)CC1` (stereo not shown) [Compound No. 58, 2-(9-chloro-2,3,4,5-tetrahydro-3-methylazepino[4,5-b]indol-6(1H)-yl)-1-(3,4-difluorophenyl)ethanol] showed an inhibition at 1 µM of 10%.
Molecule `Cc1ccc2c(c1)c1c(n2CC(O)c2ccc(F)cc2F)CCN(C)CC1` (stereo not shown) [Compound No. 59, 1-(2,4-difluorophenyl)-2-(2,3,4,5-tetrahydro-3,9-dimethylazepino[4,5-b]indol-6(1H)-yl)ethanol] has an inhibition at 1 µM of 9%.
For `CN1CCc2c(n(CC(=O)N3CCOCC3)c3ccc(Cl)cc23)CC1` [Compound No. 60, 2-(9-chloro-2,3,4,5-tetrahydro-3-methylazepino[4,5-b]indol-6(1H)-yl)-1-morpholinoethanone], the inhibition at 1 µM was 53%.
`CN1CCc2c(n(CCc3ccccc3F)c3ccc(Cl)cc23)CC1` [Compound No. 61, 6-(2-fluorophenethyl)-9-chloro-1,2,3,4,5,6-hexahydro-3-methylazepino[4,5-b]indole] showed an inhibition at 1 µM of 103%.
Molecule `Cc1ccc2c(c1)c1c(n2CCc2ccccc2)CCN(C)CC1` [Compound No. 62, 1,2,3,4,5,6-hexahydro-3,9-dimethyl-6-phenethylazepino[4,5-b]indole] has an inhibition at 1 µM of 98%.
For `Cc1ccc2c(c1)c1c(n2CCc2ccccc2F)CCN(C)CC1` [Compound No. 63, 6-(2-fluorophenethyl)-1,2,3,4,5,6-hexahydro-3,9-dimethylazepino[4,5-b]indole], the inhibition at 1 µM was 73%.
`COc1ccc(C(O)Cn2c3c(c4cc(Cl)ccc42)CCN(C)CC3)cc1F` (stereo not shown) [Compound No. 67, 2-(9-chloro-2,3,4,5-tetrahydro-3-methylazepino[4,5-b]indol-6(1H)-yl)-1-(3-fluoro-4-methoxyphenyl) ethanol] gave an inhibition at 1 µM of 99%.
In the case of `COc1ccc(C(O)Cn2c3c(c4cc(C)ccc42)CCN(C)CC3)cc1F` (stereo not shown) [Compound No. 68, 1-(3-fluoro-4-methoxyphenyl)-2-(2,3,4,5-tetrahydro-3,9-dimethylazepino[4,5-b]indol-6(1H)-yl)ethanol], the inhibition at 1 µM is reported as 100%.
`Cc1ccc2c(c1)c1c(n2CCc2ccccc2Cl)CCN(C)CC1` [Compound No. 69, 6-(2-chlorophenethyl)-1,2,3,4,5,6-hexahydro-3,9-dimethylazepino[4,5-b]indole] showed an inhibition at 1 µM of -4%.
With `CN1CCc2c(n(CC(=O)N3CCNCC3)c3ccc(Cl)cc23)CC1` [Compound No. 72, 2-(9-chloro-2,3,4,5-tetrahydro-3-methylazepino[4,5-b]indol-6(1H)-yl)-1-(piperazin-1-yl)ethanone] the inhibition at 1 µM was 7%.
`CN1CCc2c(n(CC(=O)Nc3ccccc3)c3ccc(Cl)cc23)CC1` [Compound No. 73, 2-(9-chloro-2,3,4,5-tetrahydro-3-methylazepino[4,5-b]indol-6(1H)-yl)-N-phenylacetamide] gave an inhibition at 1 µM of 21%.
Work on `CN1CCc2c(n(CC(=O)N(C)C3CCCCC3)c3ccc(Cl)cc23)CC1` [Compound No. 74, 2-(9-chloro-2,3,4,5-tetrahydro-3-methylazepino[4,5-b]indol-6(1H)-yl)-N-cyclohexyl-N-methylacetamide] yielded an inhibition at 1 µM of 27%.
In the case of `CN1CCc2c(n(CC(=O)OCc3ccccc3)c3ccc(Cl)cc23)CC1` [Compound No. 75, Benzyl-2-(9-chloro-2,3,4,5-tetrahydro-3-methylazepino[4,5-b]indol-6(1H)-yl)acetate], the inhibition at 1 µM is reported as 21%.
Work on `Cc1ccc2c(c1)c1c(n2/C=C/c2ccccc2)CCN(C)CC1` [Compound No. 229, (E)-3,9-dimethyl-6-styryl-1,2,3,4,5,6-hexahydroazepino[4,5-b]indole] yielded an inhibition at 1 µM of 103%.
